Experimental data as given in patent publication US20110263454A1, “Methods of Identifying Functional Characteristics of Promoters, Transcription Modifying Proteins and Transcription Modulating Agents” (Salk Institute for Biological Studies, priority 2008, published 2011).

B1: HNF4a: Hepatocyte Nuclear Factor α (NR2A1), cDNA driver (protein, UniProt P41235 1-474, looked up)
Hepatocyte nuclear factor …: MRLSKTLVDMDMADYSAALDPAYTTLEFENVQVLTMGNDTSPSEGTNLNAPNSLGVSALCAICGDRATGKHYGASSCDGCKGFFRRSVRKNHMYSCRFSRQCVVDKDKRNQCRYCRLKKCFRAGMKKEAVQNERDRISTRRSSYEDSSLPSINALLQAEVLSRQITSPVSGINGDIRAKKIASIADVCESMKEQLLVLVEWAKYIPAFCELPLDDQVALLRAHAGEHLLLGATKRSMVFKDVLLLGNDYIVPRHCPELAEMSRVSIRILDELVLPFQELQIDDNEYAYLKAIIFFDPDAKGLSDPGKIKRLRSQVQVSLEDYINDRQYDSRGRFGELLLLLPTLQSITWQMIEQIQFIKLFGMAKIDNLLQEMLLGGSPSDAPHAHHPLHPHLMQEHMGTNVIVANTMPTHLSNGQMCEWPRPRGQAATPETPQPSPPGGSGSEPYKLLPGAVATIVKPLSAIPQPTITKQEVI
B2: LXRb: Liver X Receptor β (NR1H2), cDNA driver (protein, UniProt P55055 1-460, looked up)
Oxysterols receptor LXR-beta: MSSPTTSSLDTPLPGNGPPQPGAPSSSPTVKEEGPEPWPGGPDPDVPGTDEASSACSTDWVIPDPEEEPERKRKKGPAPKMLGHELCRVCGDKASGFHYNVLSCEGCKGFFRRSVVRGGARRYACRGGGTCQMDAFMRRKCQQCRLRKCKEAGMREQCVLSEEQIRKKKIRKQQQESQSQSQSPVGPQGSSSSASGPGASPGGSEAGSQGSGEGEGVQLTAAQELMIQQLVAAQLQCNKRSFSDQPKVTPWPLGADPQSRDARQQRFAHFTELAIISVQEIVDFAKQVPGFLQLGREDQIALLKASTIEIMLLETARRYNHETECITFLKDFTYSKDDFHRAGLQVEFINPIFEFSRAMRRLGLDDAEYALLIAINIFSADRPNVQEPGRVEALQQPYVEALLSYTRIKRPQDQLRFPRMLMKLVSLRTLSSVHSEQVFALRLQDKKLPPLLSEIWDVHE

Assays:
Type in all cases: cell-based, mouse
[1] = test system: mPgc1b promoter; assay: NHR-promoter luciferase screen, mPgc1b promoter; conditions: for Luc. act., normalized to lacZ / Normalized Luc. act., normalized to control: PGC1b promoter reporter, co-transfected HR, without or with its ligand; for Normalized Luc. act., normalized to control: relative to control; for luciferase activity normalized to lacZ activity and to a control, mPgc1b: mPgc1b promoter-luciferase, CV-1 cells, NHR +/- ligand, control = 1.00
Experimental: Briefly, there were co-expressed 50 ng of each NHR/NHR homodimer or NHR/RXR heterodimer with 100 ng promoter/luciferase construct and 50 ng of LacZ (as a control for transfection efficiency) in CV-1 cells using Fugene HD (Roche) as a transfection reagent (alternatively or additionally, a CMV-YFP construct can be used as a transfection control). Each of the nuclear hormone receptors that were used in these experiments was cloned into a pcDNA3.1 vector and comprised a C-terminally linked V5H6 tag.
(§1) The promoters that facilitate transcription of the indicated gene products that were tested using the protocols described herein are listed in the first row of the table. The nuclear hormone receptors and, where applicable, ligands that were assayed for their transcriptional effects on the promoters are listed in the first column of the table. The data represent the luciferase activity of each sample normalized to both the lacZ activity of that sample and to a control, e.g., no NHR or ligand, as customary in the art. As described previously, these normalizations allow the transcriptional activity of each reporter cell to be compared to other samples.
(§2) Tables 7-40 show the transcriptional effects of the hormone receptors, and, where applicable, ligands (orphan receptors are screened without ligand), on each individual promoter. […] The control data of each table are shown in their last rows.

[2] = test system: mGhrelin promoter; assay: NHR-promoter luciferase screen, mGhrelin promoter; conditions: for Luc. act., normalized to lacZ / Normalized Luc. act., normalized to control: Table 8, mGhrelin; for Results of assays of transcription factor (+/- ligand) with mGhrelin: Table 6d, luciferase activity relative to control (control = 1.00)
Experimental: (§3) The use, feasibility, and reproducibility of the functional NHR-promoter screen in a 48-well format have been tested validated. Briefly, there were co-expressed 50 ng of each NHR/NHR homodimer or NHR/RXR heterodimer with 100 ng promoter/luciferase construct and 50 ng of LacZ (as a control for transfection efficiency) in CV-1 cells using Fugene HD (Roche) as a transfection reagent (alternatively or additionally, a CMV-YFP construct can be used as a transfection control). Each of the nuclear hormone receptors that were used in these experiments was cloned into a pcDNA3.1 vector and comprised a C-terminally linked V5H6 tag. Twenty-four hours after transfection, appropriate ligands were added, where applicable, (see Table 5 for various ligands and concentrations and after 48 hrs, samples were assayed for luciferase and LacZ activity. To measure for luciferase activity 15 ul of sample was added to 30 ul of luciferase buffer (20 mM tricine, 1.07 mM MgCarbonate, 2.67 mM MgSulfate, 0.1 mM Naz-EDTA, 5 mM DTT, 5 mM ATP, 0.15 mg/ml CoA, 0.5 mM Luciferin), mixed briefly, and run in a Perkin Elmer Victor 5 luminometer. Thus, the functional NHR-promoter screen was used to observe the transcriptional activity of 29 promoters from various physiological pathways including inflammation, lipid and sugar metabolism, cholesterol transport, xenobiotic metabolism, and circadian rhythm.
as §1, §2

[3] = test system: mUCP1 promoter; assay: NHR-promoter luciferase screen, mUCP1 promoter; conditions: for Luc. act., normalized to lacZ / Normalized Luc. act., normalized to control: mUCP1 promoter reporter, co-transfected HR, with or without its ligand; for Normalized Luc. act., normalized to control: relative to control; for luciferase activity normalized to lacZ activity and to a control, mUCP!: mUCP! promoter-luciferase, CV-1 cells, NHR +/- ligand, control = 1.00
Experimental: as §3, §1, §2

[4] = test system: mAgrp promoter; assay: NHR-promoter luciferase screen, mAgrp promoter; conditions: for Results of assays of transcription factor (+/- ligand) with mAgrp: Table 6d, luciferase activity relative to control (control = 1.00); for Luc. act., normalized to lacZ / Normalized Luc. act., normalized to control: mAgrp promoter, HR component with or without ligand; for Normalized Luc. act., normalized to control: relative to control
Experimental: as §3, §1, §2

[5] = test system: mAdiponectin promoter; assay: NHR-promoter luciferase screen, mAdiponectin promoter; conditions: for Luc. act., normalized to lacZ / Normalized Luc. act., normalized to control: Adiponectin, HR component without or with its ligand; for mAdiponectin promoter reporter activity: transcription factor +/- ligand, control = 1.00
Experimental: as §3, §1, §2

| Molecule | Luc. act., normalized to lacZ [1] | Normalized Luc. act., normalized to control [1] | luciferase activity normalized to lacZ activity and to a control, mPgc1b [1] | Luc. act., normalized to lacZ [2] | Normalized Luc. act., normalized to control [2] | Results of assays of transcription factor (+/- ligand) with mGhrelin [2] | luciferase/LacZ, mGhrelin (selected results) ([2]; mGhrelin promoter-luciferase, NHR +/- ligand, control = 1.0) | Luc. act., normalized to lacZ [3] | Normalized Luc. act., normalized to control [3] | luciferase activity normalized to lacZ activity and to a control, mUCP! [3] | Results of assays of transcription factor (+/- ligand) with mAgrp [4] | luciferase/LacZ, mAgrp (selected results) ([4]; mAgrp promoter-luciferase, NHR +/- ligand, control = 1.0) | Luc. act., normalized to lacZ [4] | Normalized Luc. act., normalized to control [4] | Luc. act., normalized to lacZ [5] | Normalized Luc. act., normalized to control [5] | mAdiponectin promoter reporter activity [5] |
| --- | --- | --- | --- | --- | --- | --- | --- | --- | --- | --- | --- | --- | --- | --- | --- | --- | --- |
| GR: Glucocorticoid Receptor (NR3C1), cDNA driver | 3.2 | 0.3 | 0.27 | 14.3 | 0.3 | 0.27 | 0.3 | 1.9 | 0.4 | 0.42 | 0.55 | 0.6 | 22.0 | 0.6 | 33.2 | 0.5 | 0.53 |
| RXRa: Retinoic X Receptor α (NR2B1), cDNA driver | 8.6 | 0.7 | 0.72 | 57.4 | 1.1 | 1.10 |  | 2.9 | 0.7 | 0.66 | 1.17 |  | 46.4 | 1.2 | 57.3 | 0.9 | 0.91 |
| VDR: Vitamin D Receptor (NR1I1), cDNA driver | 6.85 | 0.6 | 0.58 | 76.6 | 1.5 | 1.47 |  | 2.8 | 0.6 | 0.63 | 1.14 |  | 45.3 | 1.1 | 57.4 | 0.9 | 0.91 |
| SF-1: Steroidogenic Factor 1 (NR5A1, SF1), cDNA driver | 33.2 | 2.8 | 2.80 | 273.2 | 5.2 | 5.23 |  | 11.3 | 2.5 | 2.54 | 3.58 |  | 141.9 | 3.6 | 35.0 | 0.6 | 0.56 |
| B1 | 6.4 | 0.5 | 0.54 | 42.6 | 0.8 | 0.82 |  | 2.8 | 0.6 | 0.63 | 0.91 |  | 36.1 | 0.9 | 25.4 | 0.4 | 0.40 |
| B2 | 4.69 | 0.4 | 0.40 | 46.7 | 0.9 | 0.89 |  | 17.2 | 3.9 | 3.88 | 0.78 |  | 31.0 | 0.8 | 61.7 | 1.0 | 0.98 |
